# Source: article PMC12154458, “High-Throughput Screens of Repurposing Hub and DOS Chemical Libraries Reveal Compounds with Novel and Potent Inhibitory Activity Against the Essential Non-Neuronal Acetylcholinesterase of Schistosoma mansoni (SmTAChE)” (International Journal of Molecular Sciences, 2025)
# Read-outs that look alike come from different tables or passages of the source.
# What was measured:
# [1] = biological target: T1, rSmTAChE (Schistosoma mansoni, UniProt A0A3Q0KMM5); experiment: biochemical; conditions: for inhibition at 20 µM: read-out: rSmTAChE HTS Inhibition (Ave, %)
# [2] = biological target: T1, rSmTAChE; assay type: biochemical; conditions: for IC50: read-out: qAC50 (IC50), rSmTAChE
# [3] = biological target: recombinant human acetylcholinesterase, rHsAChE (Homo sapiens, UniProt P22303); experiment: biochemical
# [4] = Table 2, DOS-A library, Inactive = inactive at the maximum tested concentration (40 µM), read-out: IC50 (µM) rHsAChE
# [5] = dose response curve classification, Table S4, DOS-A
# [6] = read-out: qAC50 (IC50), rHsAChE
# 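Wherever Inhibition (%) (Average) is given: mostly 20 µM final but a few compounds at 5 or 10 µM.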
# 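Wherever Inhibition (%) Replicate A is given: mostly 20 µM final but a few compounds at 5 or 10 µM.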
# 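Wherever Inhibition (%) Replicate B is given: mostly 20 µM final but a few compounds at 5 or 10 µM.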
# Chain of recombinant human acetylcholinesterase, rHsAChE (P22303 32-614): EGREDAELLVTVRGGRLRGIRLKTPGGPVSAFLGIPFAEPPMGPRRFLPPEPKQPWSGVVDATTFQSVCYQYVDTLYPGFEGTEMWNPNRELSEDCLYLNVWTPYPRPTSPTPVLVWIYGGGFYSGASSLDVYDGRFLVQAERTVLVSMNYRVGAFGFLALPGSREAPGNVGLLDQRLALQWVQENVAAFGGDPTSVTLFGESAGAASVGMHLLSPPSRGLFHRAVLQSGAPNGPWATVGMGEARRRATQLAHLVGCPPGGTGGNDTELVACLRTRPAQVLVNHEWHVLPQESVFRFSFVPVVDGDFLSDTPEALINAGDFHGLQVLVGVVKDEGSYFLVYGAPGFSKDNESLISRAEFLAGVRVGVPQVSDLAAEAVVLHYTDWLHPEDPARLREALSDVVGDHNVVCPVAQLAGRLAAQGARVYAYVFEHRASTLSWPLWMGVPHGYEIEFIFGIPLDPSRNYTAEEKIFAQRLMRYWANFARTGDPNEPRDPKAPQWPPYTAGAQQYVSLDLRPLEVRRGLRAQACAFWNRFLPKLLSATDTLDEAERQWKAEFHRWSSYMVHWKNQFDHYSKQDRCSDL
# T1 sequence (A0A3Q0KMM5 27-661 limits assumed): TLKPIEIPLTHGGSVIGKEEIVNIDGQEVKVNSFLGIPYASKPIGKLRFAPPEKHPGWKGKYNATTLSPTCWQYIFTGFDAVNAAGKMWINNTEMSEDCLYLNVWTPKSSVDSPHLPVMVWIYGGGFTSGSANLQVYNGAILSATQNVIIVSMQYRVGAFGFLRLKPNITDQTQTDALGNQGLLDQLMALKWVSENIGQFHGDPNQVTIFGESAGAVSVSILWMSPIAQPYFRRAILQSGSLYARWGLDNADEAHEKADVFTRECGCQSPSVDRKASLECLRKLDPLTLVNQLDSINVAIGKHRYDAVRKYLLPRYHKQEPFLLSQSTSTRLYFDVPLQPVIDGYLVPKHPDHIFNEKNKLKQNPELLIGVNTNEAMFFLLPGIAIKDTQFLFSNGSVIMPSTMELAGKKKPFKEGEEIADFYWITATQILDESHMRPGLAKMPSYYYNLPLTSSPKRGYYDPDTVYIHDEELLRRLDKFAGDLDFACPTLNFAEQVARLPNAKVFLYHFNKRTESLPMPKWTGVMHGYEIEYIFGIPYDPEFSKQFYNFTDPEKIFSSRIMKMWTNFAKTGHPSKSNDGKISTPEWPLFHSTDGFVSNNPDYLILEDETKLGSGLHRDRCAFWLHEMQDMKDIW
SMILES,inhibition at 20 µM [1] [%],SI (Hs/Sm) [2],rSmTAChE Data Mode [2],"IC50 [3, 4] [µM]","IC50 ([3]; Table S4, DOS-A (IC50 values; qAC50), read-out: rHsAChE qAC50) [µM]","rHsAChE Data Mode [3, 5]",Inhibition (%) (Average) [1],Inhibition (%) Replicate A [1] [%],Inhibition (%) Replicate B [1] [%],rHsAChE Data Mode [3],"Data Mode (curve class), rSmTAChE [2]",IC50 [2] [µM],"Data Mode (curve class), rHsAChE [3]","IC50 [3, 6] [µM]"
CC(C)(C)[S+]([O-])N1Cc2cc(C(=O)NCCN3CCCC3)nc(-c3cccc(-c4ccc(C#N)cc4)c3)c2C1CCO (centres unmarked) [BRD-K49441594-001-01-4],61.8,2.35,decreasing,35.5,35.5,decreasing,,,,,,,,
O=C(C[C@H]1C[C@H]2c3cc(NC(=O)Nc4ccc(C(F)(F)F)cc4)ccc3O[C@H]2[C@H](CO)O1)NC1CCCCC1 [BRD-K50094564-001-01-3],,,decreasing (weakly active),,,,69.15,68.27,70.03,inactive,,,,
N#Cc1ccc(N2NC3=C(CCc4cc(C(=O)O)ccc43)[C@@H]2C2CCCC2)cc1Cl [BRD-K51041191-001-01-4],,,,,,,66.80,70.13,63.46,,decreasing (weakly active),> 38,decreasing (weakly active),> 38
O=C1[C@@H]2[C@H]3CC[C@H](C3)[C@@H]2C(=O)N1C[C@@H]1CCCC[C@H]1CN1CCN(c2nsc3ccccc23)CC1 [BRD-K51143828-003-03-1],,,,,,,77.24,79.39,75.09,,decreasing (weakly active),> 38,inactive,
CC(C)Oc1ccc(-c2nn([C@@H](C)c3oc4ccc(F)cc4c(=O)c3-c3cccc(F)c3)c3ncnc(N)c23)cc1F [BRD-K52579889-001-01-9],,,,,,,65.60,66.50,64.70,,decreasing (weakly active),> 38,inactive,
CCc1nc(-c2cccc(C)c2)c(-c2ccnc(NC(=O)c3ccccc3)c2)s1 [BRD-K52751261-001-08-7],,,,,,,70.66,75.76,65.56,,inactive,,decreasing (weakly active),> 6.8
COc1ccc(C#Cc2ccc3c(c2)O[C@H](CN(C)S(=O)(=O)c2ccccc2F)[C@@H](C)CN([C@H](C)CO)S3(=O)=O)cc1 [BRD-K53241408-001-01-7],,,inactive,,,,74.07,75.51,72.63,inactive,,,,
COc1ccc(NC(=O)Nc2ccc3c(c2)[C@H]2C[C@@H](CC(=O)NCC(F)(F)F)O[C@@H](CO)[C@H]2O3)cc1 [BRD-K54729370-001-01-4],,,inactive,,,,90.84,91.00,90.69,inactive,,,,
CCCCC/C=C\C/C=C\C/C=C\C/C=C\CCCC(=O)Nc1ccc(O)cc1 [BRD-K55462201-001-07-3],,,,,,,74.15,71.40,76.90,,inactive,,decreasing,22.4
CCOC(=O)N1c2ccc(C(F)(F)F)cc2[C@@H](N(Cc2cc(C(F)(F)F)cc(C(F)(F)F)c2)C(=O)OC)C[C@H]1CC [BRD-K55675242-001-03-0],,,,,,,71.11,72.88,69.34,,inactive,,decreasing (weakly active),> 38
CCc1c(C(=O)NCCc2ccc(N3CCCCC3)cc2)[nH]c2ccc(Cl)cc12 [BRD-K57597776-001-01-2],,,,,,,61.28,60.33,62.24,,inactive,,inactive,
O=C(Cc1cccc(OC(F)(F)F)c1)Nc1ccc(CCCCc2nnc(NC(=O)Cc3ccccn3)s2)nn1 [BRD-K58070273-001-03-3],,,,,,,71.54,74.28,68.80,,decreasing (weakly active),> 38,inactive,
CCCCCCCCCCCCc1ccc(S(=O)(=O)Nc2nncs2)cc1 [BRD-K59745944-001-04-6],,,,,,,78.08,80.43,75.72,,decreasing,1.86,decreasing,1.16
C[C@@H]1C[C@H]2[C@@H]3CCC4=CC(=O)C=C[C@]4(C)[C@@]3(Cl)[C@@H](O)C[C@]2(C)[C@@]1(OC(=O)c1ccco1)C(=O)CCl [BRD-K60640630-001-11-0],,,,,,,71.97,69.48,74.46,,decreasing (weakly active),> 38,inactive,
CCCN1C[C@H](CSC)C[C@@H]2c3cccc4[nH]cc(c34)C[C@H]21 [BRD-K60770992-066-25-0],,,,,,,71.65,73.49,69.82,,decreasing (weakly active),> 38,decreasing,29.7
COc1cccc(C#Cc2ccc([C@H]3[C@@H](C#N)N(C(=O)c4ccccn4)[C@@H]3CO)cc2)c1 [BRD-K61082257-001-01-7],,,decreasing (weakly active),,,,66.17,65.93,66.40,inactive,,,,
COc1ccc(NC(=O)Nc2ccc3c(c2)[C@@H]2C[C@H](CC(=O)NCc4ccccn4)O[C@@H](CO)[C@@H]2O3)cc1 [BRD-K62846431-001-01-3],,,decreasing (weakly active),,,,77.92,78.02,77.82,decreasing (weakly active),,,,
"COc1cccc(C#Cc2ccc([C@H]3[C@@H](CO)N(C(=O)c4ccccn4)[C@H]3C#N)cc2)c1 [BRD-K64190282-004-01-8, (2R,3R,4S)-4-(hydroxymethyl)-3-[4-[2-(3-methoxyphenyl)ethynyl]phenyl]-1-[oxo(2-pyridinyl)methyl]-2-azetidinecarbonitrile]",92.2,2.59,decreasing,33.7,,decreasing,,,,,,,,
O=C(C[C@H]1C[C@H]2c3cc(NC(=O)NC4CCCC4)ccc3O[C@H]2[C@@H](CO)O1)NCc1ccccc1F [BRD-K64460391-001-01-9],,,decreasing (weakly active),,,,88.85,89.69,88.02,inactive,,,,
O=C(Nc1ccccc1Br)N[C@@H]1CCN(c2ccc(C(F)(F)F)cn2)C1 [BRD-K65991129-001-02-9],,,,,,,65.52,67.06,63.99,,inactive,,inactive,
COc1cccc(C#Cc2ccc([C@@H]3[C@@H](C#N)N(C(=O)c4ccccn4)[C@@H]3CO)cc2)c1 [BRD-K66084396-004-02-2],,,inactive,,,,72.85,73.10,72.60,inactive,,,,
N#C[C@H]1[C@H](c2ccc(C3=CCCCC3)cc2)[C@@H](CO)N1S(=O)(=O)c1ccccc1 [BRD-K66729212-001-01-2],,,inactive,,,,61.17,61.05,61.28,inactive,,,,
CCCCC(=O)O[C@H]1CC[C@H]2[C@@H]3CCc4cc(O)ccc4[C@H]3CC[C@]12C [BRD-K66766661-001-19-2],,,,,,,77.12,78.67,75.58,,inactive,,decreasing,29.4
COc1ccc(C#Cc2ccc3c(c2)O[C@@H](CN(C)S(=O)(=O)c2ccccc2F)[C@@H](C)CN([C@H](C)CO)S3(=O)=O)cc1 [BRD-K67027685-001-01-8],,,inactive,,,,71.37,69.23,73.51,inactive,,,,
C[C@H]1[C@H](C)CC[C@]2(C(=O)O)CC[C@]3(C)C(=CC[C@@H]4[C@@]5(C)CC[C@H](O)C(C)(C)[C@@H]5CC[C@]43C)[C@H]12 [BRD-K68185022-001-14-8],,,,,,,75.09,74.28,75.90,,decreasing (weakly active),> 38,inactive,
N#C[C@H]1[C@@H](c2ccc(C#CC3CC3)cc2)[C@@H](CO)N1C(=O)Cc1ccccn1 [BRD-K68325500-004-02-0],,,inactive,,,,64.83,63.64,66.02,inactive,,,,
